# According to patent US12036226B2, “Methods of treating subjects having diabetes with chronic kidney disease” (Poxel SA, priority 2018, dated 2024):
# System: Japanese type 2 diabetic subjects
# Test: Phase 2b dose-ranging placebo-controlled 24-week study in Japanese type 2 diabetic subjects
# Format: in vivo, human
# Details: for FPG LSM difference vs baseline / FPG LSM difference vs placebo: 24 weeks, FAS; for responder rate (subjects reaching HbA1c≤7%): end of 24-week treatment (placebo 8.2%)
# Description: A Dose-Ranging, Randomized, Double-Blind, Placebo-Controlled, Parallel-Group, Multi-Center Study of the Efficacy and Safety of 3 Doses of Imeglimin after 24 Weeks of Treatment in Japanese Type 2 Diabetic Subjects
# In this study, a total of 299 subjects with T2DM received either imeglimin at one of the 3 doses (500, 1000 and 1500 mg bid) or placebo. The primary objective of this study was to assess the dose-response of imeglimin at 3 doses (500, 1000 and 1500 mg bid) compared to placebo in male and female subjects with T2DM after 24 weeks of treatment, using glycosylated hemoglobin (HbA1c) as the primary endpoint. Inclusion Criteria: subjects have an eGFR of ≥50 mL/min/1.73 m^2 at screening and >=45 at pre randomization visit. A total of 299 subjects were randomized 1:1:1:1 to one of the 4 study arms, with 268 subjects completing the study.
# Percentage of responders was defined as the percentage of subjects who reached a value of HbA1c≤7% at the end of the 24-week double-blind treatment period. The analysis was performed using the FAS for subjects with an HbA1c value greater than 7.0% at baseline.
# In a post-hoc analysis, efficacy and safety/tolerability profile was investigated in patients depending on their renal function (CKD 1=eGFR≥90 mL/min/1.73 m^2, CKD2=60≤eGFR<90 mL/min/1.73 m^2, CKD3A=45≤eGFR<60 mL/min/1.73 m^2). 299 patients were randomized 74% of the patients had CKD2, 14% had CKD1, and 12% CKD3A, respectively. The primary endpoint was met with a statistically significant dose-dependent placebo subtracted decrease in HbA1c at the 3 doses with the 2 top doses of 1,000 and 1,500 mg bid reaching an HbA1c decrease of −0.94% and −1.00% respectively (Table 5). […] There were no major differences in the incidence of AE, SAE or AE leading to treatment discontinuation.
# [1] = CKD Stage 2 (eGFR = 60-90 mL/min/1.73 m^2), 500 mg BID
# [2] = CKD Stage 2 (eGFR = 60-90 mL/min/1.73 m^2), 500 mg BID, N 56
# [3] = CKD Stage 2 (eGFR = 60-90 mL/min/1.73 m^2), 1000 mg BID
# [4] = CKD Stage 2 (eGFR = 60-90 mL/min/1.73 m^2), 1000 mg BID, N 57
# [5] = CKD Stage 2 (eGFR = 60-90 mL/min/1.73 m^2), 1500 mg BID
# [6] = CKD Stage 2 (eGFR = 60-90 mL/min/1.73 m^2), 1500 mg BID, N 51
# [7] = CKD Stage 3a (eGFR < 60 mL/min/1.73 m^2), 500 mg BID
# [8] = CKD Stage 3a (eGFR < 60 mL/min/1.73 m^2), 500 mg BID, N 10
# [9] = CKD Stage 3a (eGFR < 60 mL/min/1.73 m^2), 1000 mg BID
# [10] = CKD Stage 3a (eGFR < 60 mL/min/1.73 m^2), 1000 mg BID, N 7
compound,measurement,setting,value
"C[C@H]1N=C(N(C)C)N=C(N)N1 [imeglimin, (6R)—N^2, N^2,6-trimethyl-3,6-dihydro-1,3,5-triazine-2,4-diamine]",TEAE leading to discontinuation,500 mg (placebo 13.3%),2.7%
same,FPG LSM difference vs baseline,500 mg bid,8.0 mg/dL
same,FPG LSM difference vs placebo,500 mg bid,-8.6 mg/dL
same,placebo-adjusted change in HbA1c,"500 mg bid, baseline HbA1c <8%",−0.47%
same,placebo-adjusted change in HbA1c,"500 mg bid, baseline HbA1c ≥8%",−0.58%
same,TEAE leading to discontinuation,1000 mg (placebo 13.3%),6.8%
same,FPG LSM difference vs baseline,1000 mg bid,-8.0 mg/dL
same,FPG LSM difference vs placebo,1000 mg bid,-24.6 mg/dL
same,placebo-adjusted change in HbA1c,"1000 mg bid, baseline HbA1c <8%",−0.93%
same,placebo-adjusted change in HbA1c,"1000 mg bid, baseline HbA1c ≥8%",−0.90%
same,responder rate (subjects reaching HbA1c≤7%),1000 mg bid,33.3%
same,TEAE leading to discontinuation,1500 mg (placebo 13.3%),6.7%
same,subjects requiring a rescue therapy due to poor glycemic control,1500 mg bid (placebo 10.7%),no subjects requiring rescue therapy
same,FPG LSM difference vs baseline,1500 mg bid,-8.0 mg/dL
same,FPG LSM difference vs placebo,1500 mg bid,-24.6 mg/dL
same,placebo-adjusted change in HbA1c,"1500 mg bid, baseline HbA1c <8%",−0.82%
same,placebo-adjusted change in HbA1c,"1500 mg bid, baseline HbA1c ≥8%",−1.2%
same,responder rate (subjects reaching HbA1c≤7%),1500 mg bid,32.9%
same,Decrease in FPG (placebo-adjusted),2 top doses of 1000 and 1500 mg bid,1.37 mmol/L
same,SAE or AE leading to discontinuation,"CKD3a subgroup, post-hoc analysis",No SAE or AE leading to discontinuation were observed
same,"FPG LSM Difference vs. Placebo, Week 24",[1],-14.2 mg/dL
same,"HbA1c LSM Difference vs. Placebo (SEM), Week 24",[1],−0.60%
same,"Change in FPG from baseline, Week 24 LS Mean",[2],5.8 mg/dL
same,"Change in HbA1c from baseline, Week 24 LS Mean (SEM)",[2],−0.08 (0.109) %
same,"HbA1c LSM Difference vs. Placebo (SEM), Week 24","CKD Stage 2 (eGFR = 60-90 mL/min/1.73 m^2), 500 mg BID, listed as Imeglimin",−0.60 (0.154) %
same,"FPG LSM Difference vs. Placebo, Week 24",[3],-26.5 mg/dL
same,"HbA1c LSM Difference vs. Placebo (SEM), Week 24",[3],−1.03%
same,"Change in FPG from baseline, Week 24 LS Mean",[4],-6.5 mg/dL
same,"Change in HbA1c from baseline, Week 24 LS Mean (SEM)",[4],−0.51 (0.110) %
same,"HbA1c LSM Difference vs. Placebo (SEM), Week 24","CKD Stage 2 (eGFR = 60-90 mL/min/1.73 m^2), 1000 mg BID, listed as Imeglimin",−1.03 (0.155) %
same,"FPG LSM Difference vs. Placebo, Week 24",[5],-33.0 mg/dL
same,"HbA1c LSM Difference vs. Placebo (SEM), Week 24",[5],−1.11%
same,"Change in FPG from baseline, Week 24 LS Mean",[6],-12.9 mg/dL
same,"Change in HbA1c from baseline, Week 24 LS Mean (SEM)",[6],−0.58 (0.117) %
same,"HbA1c LSM Difference vs. Placebo (SEM), Week 24","CKD Stage 2 (eGFR = 60-90 mL/min/1.73 m^2), 1500 mg BID, listed as Imeglimin",−1.11 (0.160) %
same,"FPG LSM Difference vs. Placebo, Week 24",[7],-6.7 mg/dL
same,"HbA1c LSM Difference vs. Placebo (SEM), Week 24",[7],−0.54%
same,"Change in FPG from baseline, Week 24 LS Mean",[8],1.7 mg/dL
same,"Change in HbA1c from baseline, Week 24 LS Mean (SEM)",[8],−0.32 (0.240) %
same,"HbA1c LSM Difference vs. Placebo (SEM), Week 24","CKD Stage 3a (eGFR < 60 mL/min/1.73 m^2), 500 mg BID, listed as Imeglimin",−0.54 (0.336) %
same,"FPG LSM Difference vs. Placebo, Week 24",[9],-11.2 mg/dL
same,"HbA1c LSM Difference vs. Placebo (SEM), Week 24",[9],−0.44%
same,"Change in FPG from baseline, Week 24 LS Mean",[10],-2.8 mg/dL
same,"Change in HbA1c from baseline, Week 24 LS Mean (SEM)",[10],−0.22 (0.282) %
same,"HbA1c LSM Difference vs. Placebo (SEM), Week 24","CKD Stage 3a (eGFR < 60 mL/min/1.73 m^2), 1000 mg BID, listed as Imeglimin",−0.44 (0.368) %
